Results from patent US4358448A, “N-substituted thiazolyl derivatives of oxy-imino-substituted cephalosporins useful as anti-bacterial agents” (Farmitalia Carlo Erba S.p.A., priority 1979, dated 1982).

Key:
streptococci = assay: antibacterial activity against streptococci, relative to reference cephalosporin; format: cell-based
[1] = test system: most Gram-negative bacteria; assay: antibacterial activity against most Gram-negative bacteria, relative to reference cephalosporins; format: cell-based
[2] = test system: beta-lactamase producers organisms, such as Klebsiella aerogenes 1082 E, Enterobacter cloacae P 99, Escherichia coli Tem; assay: antibacterial activity against beta-lactamase producers organisms; format: cell-based; conditions: in words
[3] = test system: clinical isolates of indole-positive Proteus; assay: antibacterial activity against clinical isolates of indole-positive Proteus relative to HR-756; format: cell-based; conditions: in words
[4] = test system: Bacteroides fragilis VPI 9032; assay: antibacterial activity against Bacteroides fragilis relative to Cefotaxime; format: cell-based; conditions: in words
[5] = test system: Escherichia coli G, Klebsiella pneumoniae ATCC 10031, Proteus mirabilis ATCC 9921, Escherichia coli Tem., Haemophilus influenzae, Salmonella typhi Watson and …; assay: in vivo tests in infected mice; conditions: in words
[6] = approximate acute toxicity in the mouse, single intravenous administration; conditions: in vivo, single intravenous administrations of increasing doses, measured on the seventh day
Description: The toxicity of the compounds of the invention is quite negligible and therefore they can be safely used in therapy.

## CO/N=C(\C(=O)N[C@@H]1C(=O)N2C(C(=O)O)=C(CSc3ccc4nnnn4n3)CS[C@H]12)c1csc(=N)n1O [FCE 20635, 7β-[2-(2-imino-3-hydroxy-4-thiazolinyl)-2-methoxyimino-acetamido]-3-[(tetrazolo[1,5-b]pyridazin-6-yl)-thiomethyl]-3-cephem-4-carboxylic acid (syn-isomer)]
streptococci
  times more active than Cefazolin: about 4 times
[1]
  times more active than Cefazolin: about 30 times
  times more active than Cefuroxime: about 40 times
[2]
  activity against most beta-lactamase producers organisms: high activity
[3]
  activity compared with HR-756: more active than HR-756
[4]
  activity compared with Cefotaxime: at least as active as Cefotaxime
[5]
  activity in vivo tests: high activity
[6]
  LD50 at 168 h: > 2000 mg/kg
